Measurements from patent publication US7695741B2, “Topical formulation for prevention and treatment of acne” (SK Chemicals Co., Ltd., priority 2002, dated 2010).
Marks after values point to notes of the source that are not given here.

Columns and labels:
carrageenan foot edema = experiment: Carrageenan foot edema method using SD rat; assay type: in vivo; conditions: 30 mg/kg intraperitoneally, 1 hr before carrageenan; foot volume change at 4 hr
Procedure: The extracts from Cavalia gladiata, Biota orientalis, Coptis chinensis and their mixture prepared in Example 1 were intraperitoneally administered, respectively, in an amount of 30 mg/kg. After 1 hr, 0.5 ml of 0.1% carrageenan solution was injected into the sole of a back foot to induce inflammation. The volume change of rat foot at the time of injection of carrageenan and 4-hr after administration was measured and the Inhibitory rate was calculated according to the Formula 3. Inhibitory rate (%)=[(1−ΔVtreated group)/ΔVcontrol group)]×100 (ΔV: volume change of foot) Formula 3

comedo of rabbit ear [1] = experiment: Alleviatory effect on comedo using ear of white rabbit, observation with naked eye; assay type: in vivo, New Zealand white male rabbits
Text: (§1) Test system—This test has been generally adopted for evaluation of treatment. New Zealand white male rabbits aged at 4-month and weighed 2-3 kg were purchased and mitigated for 1 week, of which only the healthy ones determined with naked eye were selected.
(§2) Test materials—For test groups, the powderized extracts (0.1% (w/v)) from Cavalia gladiata, Biota orientalis, Coptis chinensis and their mixture dissolved in 70% ethanol solution were used, respectively, 1.0% azelaic acid dissolved in 70% ethanol solution was used as a positive control and 70% ethanol solution per se was used as negative control.
(§3) Classification of test systems—Isopropyl myriatate (Sigma) was daily applied to both ears of rabbit for 2 weeks for inducing comedo. Rabbits observed with naked eye to show typical comedo were selected and classified to groups each of which was comprised of 6 rabbits in consideration of comedo severity.
(§4) Administration method of test materials—Test groups and a positive control to the right ear and a negative control to the left ear of rabbit were administered once daily for 2 weeks in the amount of 0.5 ml and spread with a swab. After 2 weeks, both ears were evaluated.
The standards for determination with naked eye were classified to 7 grades, 0, 0.5, 1.0, 1.5, 2.0, 2.5 and 3.0. The area of comedo was evaluated. The period for treatment of comedo was 2-week and the aggravation and alleviation of comedo were determined.
• 0: no difference compared to control • […]: symptoms between 0 and 1 • 1: showing congestion, bleeding of capillary tube, slight cornification and enlargement of hair follicle • 1.5: symptoms between 1 and 2 • 2: medium severity of cornification and enlargement of hair follicle • 2.5: symptoms between 2 and 3 • 3: excessive severity of cornification and enlargement of hair follicle, showing typical comedo

comedo of rabbit ear [2] = experiment: Alleviatory effect on comedo using ear of white rabbit, observation with image analysis; assay type: in vivo, New Zealand white male rabbits
Text: as §1, §2, §3, §4
After the observation with naked eye, each test group was euthanized with sodium pentobarbital and its both ears were cut out, after which their tissues at basement were cleaved in a size of about 2.5×1.5 cm and immersed in warm water (50° C.) for 3 min. The epiderms from the tissues were detached, placed with inner side upward on slide glass, fixed and dried at room temperature.

[3] = molecular target: T1, Testosterone 5α-Reductase (Rattus norvegicus, UniProt P24008); experiment: Inhibitory effect on testosterone 5α-reductase activity (rat liver enzyme, (3H) testosterone, TLC); assay type: biochemical, Sprague-Dawley rat
T1 construct: from tissue; host or cells: liver of 8-week-old female Sprague-Dawley rat (homogenate, sonicated and centrifuged)
T1 sequence (P24008 1-259): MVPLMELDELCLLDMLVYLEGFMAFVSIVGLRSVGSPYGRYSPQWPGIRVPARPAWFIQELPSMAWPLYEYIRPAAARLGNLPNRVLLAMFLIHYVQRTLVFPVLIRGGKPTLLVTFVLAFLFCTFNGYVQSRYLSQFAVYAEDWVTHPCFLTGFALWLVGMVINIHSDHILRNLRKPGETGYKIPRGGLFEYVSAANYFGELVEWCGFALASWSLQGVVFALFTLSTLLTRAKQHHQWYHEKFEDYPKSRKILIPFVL
Procedure: Testosterone 5α-Reductase, used to examine the inhibitory effect of the extract obtained from oriental medicines against testosterone 5α-reductase activity, was prepared at a temperature of below 4° C. The white female Sprague-Dawley rat aged at 8 weeks was anesthetized by inhalation of diethylether and sacrificed by the disjunction of cervicals, followed by liver ablation. The extracted liver was washed three times with PBS (phosphate buffered saline) and 3 volumes of ice-cold buffer (50 mM sodium phosphate, pH 6.8, 0.25 M sucrose, 1 mM dithiothreitol) were added, followed by pulverizing with a cell homogenizer (Polytron Homogenizer), obtaining homogenized suspension. […] The protein quantification of the protein suspension obtained thus was performed according to Bradford method and its accurate value was determined with ELISA reader.
For evaluating the inhibitory effect on the activity of 5α-Reductase, to 50 μl of the reaction solution, 10 μl of ethanol solution of inhibitor or tested sample (70% ethanol solution containing extract from oriental medicine) were added and the protein suspension was added to the volume of 100 μl of the reaction solution. […] The area exposed was measured with densitometer and the inhibitory rate against testosterone 5α-Reductase was calculated as shown in the below formula 1. […]

Propionibacterium acnes = experiment: Antimicrobial activity against acne pathogen (agar medium, anaerobic culture, colony count); assay type: cell-based; parameters: key: −: inhibition of growth; ±: pseudo-positive; +: positive
Procedure: The examination on antimicrobial activity of three extracts (Cavalia gladiata, Biota orientalis and Coptis chinensis) was performed in such a manner that an acne pathogen (Propionibacterium acnes) that was cultured in liquid medium was treated with a predetermined concentration of extract powderized by freeze drying and then cultured in an anaerobic incubator, followed by measuring a minimum inhibitory concentration (MIC) against an acne pathogen (Propionibacterium acnes). The overall procedure is as follows:
The acne pathogen (Propionibacterium acnes) was cultured at 37° C. for 3 days in reinforced clostridial medium and then continued to subculture until showing significant activity.
First, in a liquid culture method, 10 ml of reinforced clostridial medium were introduced to screw cap tube and sterilized for 20 min at 121° C. After sterilization, 0.5 ml of liquid paraffin sterilized separately was added dropwise on the liquid medium to protect the contact with oxygen. After cooling the medium, the microbe was inoculated into the medium and cultured at 37° C. for above 72 hr.
Second, in a solid culture method, 10 ml of the solid medium prepared by adding 0.1% agar to reinforced clostridial medium was introduced to a screw cap tube and sterilized at 121° C. for 20 min. After cooling the medium, the microbe was inoculated into the medium by use of inoculating platinum loop and stab-cultured for 72 hr at 37° C.
Third, in a plate culture method, the agar medium prepared and sterilized as a solid culture method was poured to a plate and cooled. After cooling and solidifying completely, the plate was placed in an anaerobic jar, 10 ml of water were introduced to complex gas (CO2 10.5%, H2 9.6%, N2 79.9%) and the lid was kept covered, followed by culturing at 37° C. for 72 hr.
1 ml of the medium containing Propionibacterium acnes subjected to a sufficient subculture was taken and inoculated into a medium containing 9 ml of reinforced clostridial medium, thereby obtaining 10-fold diluted culture medium. The same procedure was repeated to obtain between 10^−1 and […] diluted culture media. Each of the homogeneous solutions containing Cavalia gladiata, Biota orientalis, Coptis chinensis and at least two combinations thereof was well dissolved in 10 ml of 70% ethanol to obtain 2-fold diluted solution. The solution was filtered for removing bacteria through 0.2 μm membrane filter. […] 1 ml of the diluted medium (medium of Propionibacterium acnes subject to subculture diluted to 10^−1-10^−5) was dispensed in a petri dish and each agar medium having certain concentration was dispensed, followed by mixing and keeping it to stand for solidifying the agar medium. After solidification, the medium was placed in an anaerobic jar that in turn was equipped with gas-pak. Following culturing at 37° C. for 3 days, the number of colonies formed were counted and compared to that of a control group, and the inhibitory rate was calculated based on the results.

skin of a hairless mouse = experiment: First screening for promoting keratolysis (silver acetate blackened skin, closed patch); assay type: in vivo; parameters: key to Discoloration (keratolysis effect): ++: significant discoloration; +: discoloration; ±: slight discoloration; −: no change; conditions: for Appearance of Exfoliation: hairless mouse, closed patch about 24 hr; for Discoloration (keratolysis effect): positive control 2 wt % (pH 4)
Procedure: All skin cells help to maintain skin homeostasis through suitable metabolic processes by controlling the rate of their proliferation and exfoliation. Therefore, the reproduction rate of skin could be indirectly examined by observing the exfoliation rate of stratum corneum that can be generally measured by evaluating the level of skin discoloration associated with keratolysis. In evaluating the efficacy of extracts, the first screening for promoting keratolysis was performed using hairless mouse. Each extract sample was prepared by dissolving the dried powder extract prepared in Example 1 in 70% ethanol and the positive controls including glycolic acid or lactic acid were prepared as described above. The experiments were carried out as follows: The skin of a hairless mouse was washed with 10% SDS for 30 min and then allowed its skin to dry for experiment. 0.4 ml of aqueous silver acetate liquid was covered with a hill top chamber and closed patch was performed for 30 min, followed by infiltrating with a photo-developing solution to blacken a portion of patch with silver acetate. The closed patch was further performed with each extract sample on the blackened portion and removed after about 24 hr. The coloring index before application of extract and discoloring index at 24 hr after removal were measured by means of calorimeter (The higher the discoloring index, the higher is the keratolysis effect)

mouse ear edema = experiment: Balb.c ear edema test; assay type: in vivo, Balb.c mouse; conditions: 0.3 mg/ear topically at 15 min and 6 hr after induction; 24 hr
Procedure: To examine anti-inflammatory effect of the extracts, irritation-inducing substances, 5.0% benzalkonium chloride, 2.5% coroton oil and 3000 iu/g retinoic acid (negative control) were dissolved in 70% ethanol solution and its 0.3 mg/ear was topically applied to mouse ear (6 mice per group) in order to induce edema. At 15 min and 6 hr after induction of edema, respectively, each of the extract and controls (0.3 mg/ear) was topically applied to mouse ear. After 24 hr of application of irritation-inducing substances, the applied portion of the mouse was cut off with a punch and its weight was weighted. The edema extent was evaluated based on the mean value from the measurements with micrometer.
Inhibitory rate (%)=[(A−B)/A]×100 Formula 4
A: mean value of ear thickness of control group (ear thickness after treatment of negative control−ear thickness with no treatment)
B: ear thickness of sample group (ear thickness after treatment of sample−ear thickness with no treatment)

[4] = extracts 0.1% (w/v), azelaic acid 1.0%, 2 weeks

Compound: CC(=O)Oc1ccccc1C(=O)O [Aspirin]
- Inhibitory rate (%) of foot edema (carrageenan foot edema): 35.2 ± 6%

Compound: O=C(O)CCCCCCCC(=O)O [Azelaic acid]
- Inhibitory rate (%), naked eye comedo grade (comedo of rabbit ear [1]; [4]): 28.5%
- After administration (right ear), naked eye comedo grade (comedo of rabbit ear [1]; grades 0-3, extracts 0.1% (w/v), azelaic acid 1.0%, 0.5 ml once daily for 2 weeks): 1.13 ± 0.14
- Before administration (left ear), naked eye comedo grade (comedo of rabbit ear [1]; grades 0-3, left ear): 1.58 ± 0.12
- Inhibitory rate (%), area of comedo/number (comedo of rabbit ear [2]; [4]): 40.0%
- After administration (right ear) Area of comedo/number (cm^2) (comedo of rabbit ear [2]; image analysis, extracts 0.1% (w/v), azelaic acid 1.0%, once daily for 2 weeks): 0.18 ± 0.02 cm^2
- Before administration (left ear) Area of comedo/number (cm^2) (comedo of rabbit ear [2]; image analysis, left ear): 0.30 ± 0.02 cm^2
- comedo decreasing ratio (area/count ratio) (comedo of rabbit ear [2]; text restating Table 11): 40.0%
- Inhibitory rate against 5α-reductase (%) ([3]; Conc. 0.1 %): 19.8%
- Inhibitory rate against 5α-reductase (%) ([3]; Conc. 1.0 %): 100.0%

Compound: O=C(OOC(=O)c1ccccc1)c1ccccc1 [Benzoylperoxide]
- MIC to P. acnes (growth at concentration of extract) (Propionibacterium acnes; Concentration of extract 0.005 %): +
- MIC to P. acnes (growth at concentration of extract) (Propionibacterium acnes; Concentration of extract 0.01 %): +
- MIC to P. acnes (growth at concentration of extract) (Propionibacterium acnes; Concentration of extract 0.03 %): +
- MIC to P. acnes (growth at concentration of extract) (Propionibacterium acnes; Concentration of extract 0.05 %): +***
- MIC to P. acnes (growth at concentration of extract) (Propionibacterium acnes; Concentration of extract 0.10 %): ±**
- MIC to P. acnes (growth at concentration of extract) (Propionibacterium acnes; Concentration of extract 0.50 %): −

Compound: O=C(O)CO [Glycolic acid]
- Appearance of Exfoliation (skin of a hairless mouse): Heterogeneous
- Discoloration (keratolysis effect) (skin of a hairless mouse): 2 wt % (pH 4) ++

Compound: CC1(C)[C@@H](O[C@H]2O[C@H](C(=O)O)[C@@H](O)[C@H](O)[C@H]2O[C@@H]2O[C@H](C(=O)O)[C@@H](O)[C@H](O)[C@H]2O)CC[C@]2(C)[C@H]3C(=O)C=C4[C@@H]5C[C@@](C)(C(=O)O)CC[C@]5(C)CC[C@@]4(C)[C@]3(C)CC[C@@H]12 [Glycyrrhizinic acid]
- Inhibitory rate on ear thickness (%) (mouse ear edema): 42.7%
- Inhibitory rate on ear weight (%) (mouse ear edema): 38.4%

Compound: COc1ccc2c(c1)c(CC(=O)O)c(C)n2C(=O)c1ccc(Cl)cc1 [Indomethacin]
- Inhibitory rate on ear thickness (%) (mouse ear edema): 52.0%
- Inhibitory rate on ear weight (%) (mouse ear edema): 45.6%

Compound: CC(O)C(=O)O (stereo not drawn) [Lactic acid]
- Appearance of Exfoliation (skin of a hairless mouse): Heterogeneous
- Discoloration (keratolysis effect) (skin of a hairless mouse): 2 wt % (pH 4) ++
